Test results published in ChEMBL document CHEMBL1201862, “PubChem BioAssay data set” (2004).
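Briefly, cells in 96-well plates were exposed to five compound concentrations for 48 h, and endpoints were estimated by linear interpolation. GI50 = concentration required for 50% inhibition of growth.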 Calls of active or inactive are those of the source. No stated cut-off is given here; in the data, active = GI50 up to about 1.1 µM and inactive = higher.

Legend:
Experiment in all cases: NCI tumour cell line growth inhibition, 48 h
CCRF-CEM = tested on: CCRF-CEM
HCC 2998 = tested on: HCC 2998
HL-60 = tested on: HL-60
HT-29 = tested on: HT-29
K562 = tested on: K562
M14 = tested on: M14
MCF7 = tested on: MCF7
MDA-MB-435 = tested on: MDA-MB-435
Malme-3M = tested on: Malme-3M
NCI-H23 = tested on: NCI-H23
NCI-H460 = tested on: NCI-H460
OVCAR-8 = tested on: OVCAR-8
PC-3 = tested on: PC-3
RXF 393 = tested on: RXF 393
SF-295 = tested on: SF-295
SK-OV-3 = tested on: SK-OV-3
SN12C = tested on: SN12C
SR = tested on: SR
TK-10 = tested on: TK-10
UACC-257 = tested on: UACC-257

SMILES: Cn1c(=O)oc2cc(C(O)CN3CCN(Cc4ccccn4)CC3)c(Cl)cc21 (stereo not given)
- GI50 (CCRF-CEM): > 100 µM (inactive)
- GI50 (HCC 2998): > 100 µM (inactive)
- GI50 (HL-60): > 100 µM (inactive)
- GI50 (HT-29): > 100 µM (inactive)
- GI50 (K562): > 100 µM (inactive)
- GI50 (M14): > 100 µM (inactive)
- GI50 (MCF7): > 100 µM (inactive)
- GI50 (MDA-MB-435): > 100 µM (inactive)
- GI50 (Malme-3M): > 100 µM (inactive)
- GI50 (NCI-H23): > 100 µM (inactive)
- GI50 (NCI-H460): > 100 µM (inactive)
- GI50 (OVCAR-8): > 100 µM (inactive)
- GI50 (PC-3): > 100 µM (inactive)
- GI50 (RXF 393): > 100 µM (inactive)
- GI50 (SF-295): > 100 µM (inactive)
- GI50 (SK-OV-3): > 100 µM (inactive)
- GI50 (SN12C): > 100 µM (inactive)
- GI50 (SR): 23.3 µM (inactive)
- GI50 (TK-10): > 100 µM (inactive)
- GI50 (UACC-257): > 100 µM (inactive)

SMILES: COC(=O)CCC(=O)NC1=C(Nc2ccc(OC)cc2)C(=O)c2ccccc2C1=O
- GI50 (CCRF-CEM): 26.1 µM (inactive)
- GI50 (HCC 2998): 20.1 µM (inactive)
- GI50 (HL-60): 10.8 µM (inactive)
- GI50 (HT-29): 12.6 µM (inactive)
- GI50 (K562): 23.9 µM (inactive)
- GI50 (M14): 7.26 µM (inactive)
- GI50 (MCF7): 4.11 µM (inactive)
- GI50 (MDA-MB-435): 2 µM (inactive)
- GI50 (Malme-3M): 2.05 µM (inactive)
- GI50 (NCI-H23): 6.34 µM (inactive)
- GI50 (NCI-H460): 7.21 µM (inactive)
- GI50 (OVCAR-8): 14.1 µM (inactive)
- GI50 (PC-3): 9.66 µM (inactive)
- GI50 (RXF 393): 13.4 µM (inactive)
- GI50 (SF-295): 13 µM (inactive)
- GI50 (SK-OV-3): 23.7 µM (inactive)
- GI50 (SN12C): 13.1 µM (inactive)
- GI50 (SR): 12.9 µM (inactive)
- GI50 (TK-10): 32.7 µM (inactive)
- GI50 (UACC-257): 4.61 µM (inactive)

SMILES: COC(=O)c1c(O)ccc2c1c1c(n2Cc2ccc(OC)cc2)C(=O)c2ccccc2C1=O
- GI50 (CCRF-CEM): 0.128 µM (active)
- GI50 (HCC 2998): 2.97 µM (inactive)
- GI50 (HL-60): 0.308 µM (active)
- GI50 (HT-29): 3.09 µM (inactive)
- GI50 (K562): 3.28 µM (inactive)
- GI50 (M14): 10.7 µM (inactive)
- GI50 (MCF7): 4.49 µM (inactive)
- GI50 (MDA-MB-435): 6.46 µM (inactive)
- GI50 (Malme-3M): 39.9 µM (inactive)
- GI50 (NCI-H23): 11 µM (inactive)
- GI50 (NCI-H460): 3.75 µM (inactive)
- GI50 (OVCAR-8): 2.4 µM (inactive)
- GI50 (PC-3): 5.2 µM (inactive)
- GI50 (RXF 393): 10.7 µM (inactive)
- GI50 (SF-295): 14.2 µM (inactive)
- GI50 (SK-OV-3): 15.6 µM (inactive)
- GI50 (SN12C): 2.78 µM (inactive)
- GI50 (SR): 0.251 µM (active)
- GI50 (TK-10): 45.7 µM (inactive)
- GI50 (UACC-257): 26.3 µM (inactive)

SMILES: COc1cc2ncnc(Nc3cccc(Cl)c3)c2cc1OC [TYRPHOSTIN AG-1478]
- GI50 (CCRF-CEM): 3.82 µM (inactive)
- GI50 (HCC 2998): 13.6 µM (inactive)
- GI50 (HL-60): 21.8 µM (inactive)
- GI50 (HT-29): 9.38 µM (inactive)
- GI50 (K562): 8.71 µM (inactive)
- GI50 (M14): 7.16 µM (inactive)
- GI50 (MCF7): 21.5 µM (inactive)
- GI50 (MDA-MB-435): 11.9 µM (inactive)
- GI50 (Malme-3M): 6.28 µM (inactive)
- GI50 (NCI-H23): 14.6 µM (inactive)
- GI50 (NCI-H460): 13.4 µM (inactive)
- GI50 (OVCAR-8): 3.66 µM (inactive)
- GI50 (PC-3): 12.6 µM (inactive)
- GI50 (RXF 393): 9.42 µM (inactive)
- GI50 (SF-295): 9.48 µM (inactive)
- GI50 (SK-OV-3): 0.472 µM (active)
- GI50 (SN12C): 8.91 µM (inactive)
- GI50 (SR): 7.33 µM (inactive)
- GI50 (TK-10): 0.173 µM (active)
- GI50 (UACC-257): 7.57 µM (inactive)

SMILES: C=CCCCCCCCCCOC1C=CC(OC(C)=O)C(COC(C)=O)O1 (stereo not given)
- GI50 (CCRF-CEM): 39.1 µM (inactive)
- GI50 (HCC 2998): 39.8 µM (inactive)
- GI50 (HL-60): 24.2 µM (inactive)
- GI50 (HT-29): 21.4 µM (inactive)
- GI50 (K562): 1.99 µM (inactive)
- GI50 (M14): 30.1 µM (inactive)
- GI50 (MCF7): 38.8 µM (inactive)
- GI50 (MDA-MB-435): 50.8 µM (inactive)
- GI50 (Malme-3M): 35.2 µM (inactive)
- GI50 (NCI-H23): 32.1 µM (inactive)
- GI50 (NCI-H460): 38.7 µM (inactive)
- GI50 (OVCAR-8): 18.1 µM (inactive)
- GI50 (PC-3): 32 µM (inactive)
- GI50 (RXF 393): > 100 µM (inactive)
- GI50 (SF-295): 72.9 µM (inactive)
- GI50 (SK-OV-3): > 100 µM (inactive)
- GI50 (SN12C): 42.8 µM (inactive)
- GI50 (SR): 32.7 µM (inactive)
- GI50 (TK-10): 44.3 µM (inactive)
- GI50 (UACC-257): 29 µM (inactive)

SMILES: COC1CCC(OS(C)(=O)=O)C(C)O1 (stereo not given)
- GI50 (CCRF-CEM): > 10 µM (inactive)
- GI50 (HCC 2998): > 10 µM (inactive)
- GI50 (HL-60): > 10 µM (inactive)
- GI50 (HT-29): > 10 µM (inactive)
- GI50 (K562): > 10 µM (inactive)
- GI50 (M14): > 10 µM (inactive)
- GI50 (MCF7): > 10 µM (inactive)
- GI50 (MDA-MB-435): > 10 µM (inactive)
- GI50 (Malme-3M): > 10 µM (inactive)
- GI50 (NCI-H23): > 10 µM (inactive)
- GI50 (NCI-H460): > 10 µM (inactive)
- GI50 (OVCAR-8): > 10 µM (inactive)
- GI50 (PC-3): > 10 µM (inactive)
- GI50 (RXF 393): > 10 µM (inactive)
- GI50 (SF-295): > 10 µM (inactive)
- GI50 (SK-OV-3): > 10 µM (inactive)
- GI50 (SN12C): > 10 µM (inactive)
- GI50 (SR): > 10 µM (inactive)
- GI50 (TK-10): > 10 µM (inactive)
- GI50 (UACC-257): > 10 µM (inactive)

SMILES: O=C1CCSc2nc(-c3ccc4c(c3)OCO4)nn21
- GI50 (CCRF-CEM): > 10 µM (inactive)
- GI50 (HCC 2998): > 10 µM (inactive)
- GI50 (HL-60): > 10 µM (inactive)
- GI50 (HT-29): > 10 µM (inactive)
- GI50 (K562): > 10 µM (inactive)
- GI50 (M14): > 10 µM (inactive)
- GI50 (MCF7): > 10 µM (inactive)
- GI50 (MDA-MB-435): > 10 µM (inactive)
- GI50 (Malme-3M): > 10 µM (inactive)
- GI50 (NCI-H23): > 10 µM (inactive)
- GI50 (NCI-H460): > 10 µM (inactive)
- GI50 (OVCAR-8): > 10 µM (inactive)
- GI50 (PC-3): > 10 µM (inactive)
- GI50 (RXF 393): > 10 µM (inactive)
- GI50 (SF-295): > 10 µM (inactive)
- GI50 (SK-OV-3): > 10 µM (inactive)
- GI50 (SN12C): > 10 µM (inactive)
- GI50 (SR): > 10 µM (inactive)
- GI50 (TK-10): > 10 µM (inactive)
- GI50 (UACC-257): > 10 µM (inactive)

SMILES: COc1cc(C(=O)Oc2c(C(C)=O)sc3c2c(=O)n(-c2ccccc2)c(=S)n3-c2ccccc2)cc(OC)c1OC
- GI50 (CCRF-CEM): 15.3 µM (inactive)
- GI50 (HCC 2998): 24.7 µM (inactive)
- GI50 (HL-60): 24.7 µM (inactive)
- GI50 (HT-29): 11 µM (inactive)
- GI50 (K562): 33.6 µM (inactive)
- GI50 (M14): 16.9 µM (inactive)
- GI50 (MCF7): 19.5 µM (inactive)
- GI50 (MDA-MB-435): 22.5 µM (inactive)
- GI50 (Malme-3M): 8.17 µM (inactive)
- GI50 (NCI-H23): 20.2 µM (inactive)
- GI50 (NCI-H460): 12.6 µM (inactive)
- GI50 (OVCAR-8): 18.8 µM (inactive)
- GI50 (PC-3): 18.2 µM (inactive)
- GI50 (RXF 393): 18.9 µM (inactive)
- GI50 (SF-295): 8.3 µM (inactive)
- GI50 (SK-OV-3): 31.6 µM (inactive)
- GI50 (SN12C): 11.9 µM (inactive)
- GI50 (SR): > 100 µM (inactive)
- GI50 (TK-10): 38.9 µM (inactive)
- GI50 (UACC-257): 28.1 µM (inactive)
